Data reported in patent publication US12630563B2, “Macrocyclic RIP2-kinase inhibitors” (Oncodesign S.A., priority 2020, dated 2026).
pIC50: −log10 of the molar value.

test system: not listed separately; assay: Human Clint, microsomal metabolic stability (Assay B); type: in vitro ADME; conditions: pooled liver microsomes 0.5 mg/mL, 0.5 μM compound, NADPH
Procedure: Human Clint protocol: Pooled liver microsomes (Sekisui Xenotech) were diluted at 0.5 mg/mL in 50 mM phosphate buffer, pH 7.4 then pre-incubated with 0.5 μM […] for 7 min at 37° C. The reactions were initiated by adding prewarmed cofactor (0.44 mM NADPH). Aliquots of samples were taken at 0, 5, 10, 20 and 45 min and the reactions stopped by addition of cold acetonitrile containing an internal standard. Samples were centrifuged at 3000 g for 10 min at 4° C. and then supernatants were analyzed by LC/MS/MS for the amount of parent compound remaining.

Row | SMILES | Assay B: Human Clint (hCl)
1 | COc1cn2ncc3c2nc1OC[C@@H]1C[C@@H](OC)C(=O)N1CCNc1cc(F)cc-3c1 [Example 1, (12R,14S)-4-fluoro-12,18-dimethoxy-16-oxa-7,10,20,21,24-pentaazapentacyclo[15.5.2.1^2,6.0^1°,^14.0^2°,^23]pentacosa-1(23),2(25),3,5,17(24),18,21-heptaen-11-one] | +++ (+++ indicates hCl equal or below 5 ug/min/mg prot)

molecular target: T1, hERG potassium channel (Homo sapiens, UniProt Q12809); assay: hERG q-patch assay (Assay C, Sophion Qube automated electrophysiology); type: cell-based; conditions: read-out: Assay C: hERG q-patch inhibition IC50
T1 construct: host or cells: HEK (hERG-HEK stably transfected cell line)
T1 sequence (Q12809 whole entry): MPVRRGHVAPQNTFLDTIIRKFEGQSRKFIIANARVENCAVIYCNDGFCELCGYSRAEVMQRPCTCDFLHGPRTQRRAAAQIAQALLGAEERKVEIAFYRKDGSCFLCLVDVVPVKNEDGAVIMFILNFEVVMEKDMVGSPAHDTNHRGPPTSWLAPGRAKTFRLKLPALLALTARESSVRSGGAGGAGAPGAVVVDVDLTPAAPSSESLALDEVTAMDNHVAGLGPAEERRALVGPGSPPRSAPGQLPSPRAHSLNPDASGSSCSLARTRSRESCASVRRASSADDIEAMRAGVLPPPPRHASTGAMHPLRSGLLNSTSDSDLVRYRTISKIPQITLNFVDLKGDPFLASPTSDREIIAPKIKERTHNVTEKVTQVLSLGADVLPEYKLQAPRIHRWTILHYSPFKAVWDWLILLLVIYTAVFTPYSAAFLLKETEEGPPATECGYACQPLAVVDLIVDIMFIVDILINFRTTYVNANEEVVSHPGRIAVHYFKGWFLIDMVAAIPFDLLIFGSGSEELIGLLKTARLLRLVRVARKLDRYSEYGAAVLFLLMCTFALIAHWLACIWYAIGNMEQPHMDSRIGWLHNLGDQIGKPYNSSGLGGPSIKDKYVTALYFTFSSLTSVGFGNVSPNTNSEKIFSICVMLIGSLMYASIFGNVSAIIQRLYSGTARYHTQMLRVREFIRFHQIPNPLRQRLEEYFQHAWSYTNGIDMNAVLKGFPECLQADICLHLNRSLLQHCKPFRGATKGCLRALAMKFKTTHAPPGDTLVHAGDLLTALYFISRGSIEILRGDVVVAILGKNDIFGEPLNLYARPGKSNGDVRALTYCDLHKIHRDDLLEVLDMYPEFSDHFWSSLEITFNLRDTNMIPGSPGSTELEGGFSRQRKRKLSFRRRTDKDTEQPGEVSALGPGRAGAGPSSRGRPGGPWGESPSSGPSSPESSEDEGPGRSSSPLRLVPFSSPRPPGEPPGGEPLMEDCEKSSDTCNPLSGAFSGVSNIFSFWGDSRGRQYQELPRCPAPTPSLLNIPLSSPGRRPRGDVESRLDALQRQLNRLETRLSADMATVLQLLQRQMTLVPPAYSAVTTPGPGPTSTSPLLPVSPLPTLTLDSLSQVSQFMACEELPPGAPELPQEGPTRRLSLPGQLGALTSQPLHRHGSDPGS
Procedure: hERG q-patch assay protocol: The potential for test compound to inhibit the hERG potassium channel was determined using the Charles River ChanTest® hERG-HEK stably transfected cell line on the Sophion Qube automated electrophysiology platform. The assay was performed at room temperature and recordings of the hERG tail current from a population of cells were made using multi-hole QChips.

Row | SMILES | pIC50
2 | COc1cn2ncc3c2nc1OC[C@@H]1C[C@@H](OC)C(=O)N1CCNc1cc(F)cc-3c1 [Example 1, (12R,14S)-4-fluoro-12,18-dimethoxy-16-oxa-7,10,20,21,24-pentaazapentacyclo[15.5.2.1^2,6.0^1°,^14.0^2°,^23]pentacosa-1(23),2(25),3,5,17(24),18,21-heptaen-11-one] | < 5.00

molecular target: T2, recombinant hRIPK2 protein (kinase domain aa 1-299-His-tagged) (Homo sapiens, UniProt O43353); assay: RIPK2 AlphaLISA assay (displacement of bead-bound CZC-8004 from hRIPK2); type: binding; conditions: recombinant hRIPK2 kinase domain 10 nM, 2 h at 23° C.
T2 construct: kinase domain aa 1-299-His-tagged; purchased Life Technologies PR7829A
T2 sequence (O43353 1-299): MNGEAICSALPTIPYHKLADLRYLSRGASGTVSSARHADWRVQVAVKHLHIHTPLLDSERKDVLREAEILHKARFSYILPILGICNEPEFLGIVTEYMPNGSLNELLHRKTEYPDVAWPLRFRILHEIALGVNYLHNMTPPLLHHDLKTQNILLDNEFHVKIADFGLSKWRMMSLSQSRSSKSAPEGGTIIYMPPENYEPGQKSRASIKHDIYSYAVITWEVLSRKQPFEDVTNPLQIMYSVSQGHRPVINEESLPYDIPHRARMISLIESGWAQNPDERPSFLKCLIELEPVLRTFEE
In short: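 His-tagged kinase domain (10 nM, as diluted) was mixed with compound (0.8% DMSO), acceptor beads bearing the probe CZC-8004 and Ni2+ donor beads. After 2 h at 23 °C, AlphaLISA signal was read. Loss of signal reflects displacement of the probe from RIPK2.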

Row | SMILES | pIC50
3 | COCCO[C@@H]1C[C@H]2COc3nc4c(cnn4cc3OC)-c3cc(F)cc(c3)NCCN2C1=O [Example 129, (12R,14S)-4-fluoro-18-methoxy-12-(2-methoxyethoxy)-16-oxa-7,10,20,21,24-pentaazapentacyclo[15.5.2.1^2,6.0^10,^14.0^20,^23]pentacosa-1(23),2,4,6(25),17(24),18,21-heptaen-11-one] | > 8.00
4 | COCCO[C@@H]1C[C@H]2COc3nc4c(cnn4cc3OCC3CCO3)-c3cc(cc(OC)c3)NCCN2C1=O (stereo partly drawn) [Example 130, (12R,14S)-4-methoxy-12-(2-methoxyethoxy)-18-(oxetan-2-ylmethoxy)-16-oxa-7,10,20,21,24-pentaazapentacyclo[15.5.2. 1^2,6.0^10,^14.0^20,^23]pentacosa-1(23),2,4,6(25),17(24),18,21-heptaen-11-one] | > 8.00
5 | COCCO[C@@H]1C[C@H]2COc3nc4c(cnn4cc3OC)-c3cc(cc(OC(C)C)c3)NCCN2C1=O [Example 131, (12R,14S)-18-methoxy-12-(2-methoxyethoxy)-4-(propan-2-yloxy)-16-oxa-7,10,20,21,24-pentaazapentacyclo[15.5.2.1^2,6.0^10,^14.0^20,^23]pentacosa-1(23),2,4,6(25),17(24),18,21-heptaen-11-one] | > 8.00
6 | CCO[C@@H]1C[C@H]2COc3nc4c(cnn4cc3OC)-c3cc(cc(OC)c3)NCCN2C1=O [Example 132, (12R,14S)-12-ethoxy-4,18-dimethoxy-16-oxa-7,10,20,21,24-pentaazapentacyclo[15.5.2. 1^2,6.0^10,^14.0^20,^23]pentacosa-1(23),2,4,6(25),17(24),18,21-heptaen-11-one] | > 8.00
7 | COc1cc2cc(c1)-c1cnn3cc(OC)c(nc13)OC[C@@H]1C[C@@H](OC)C(=O)N1CCN2 [Example 133, (12R,14S)-4,12,18-trimethoxy-16-oxa-7,10,20,21,24-pentaazapentacyclo[15.5.2. 1^2,6.0^10,^14.0^20,^23]pentacosa-1(23),2,4,6(25),17(24),18, 21-heptaen-11-one] | > 8.00
8 | COc1cc2cc(c1)-c1cnn3cc(OC)c(nc13)OC[C@@H]1C[C@@H](OCC3COC3)C(=O)N1CCN2 [Example 134, (12R,14S)-4,18-dimethoxy-12-(oxetan-3-ylmethoxy)-16-oxa-7,10,20,21,24-pentaazapentacyclo[15.5.2. 1^2,6.0^10,^14.0^20,^23]pentacosa-1(23),2,4,6(25),17(24),18, 21-heptaen-11-one] | > 8.00
9 | COc1cc2cc(c1)-c1cnn3cc(OC)c(nc13)OC[C@@H]1C[C@@H](OCCN(C)C)C(=O)N1CCN2 [Example 135, (12R,14S)-12-[2-(dimethylamino)ethoxy]-4,18-dimethoxy-16-oxa-7,10,20,21,24-pentaazapentacyclo[15.5.2. 1^2,6.0^10,^14.0^20,^23]pentacosa-1(23),2,4,6(25),17(24),18, 21-heptaen-11-one] | > 8.00
10 | COCCO[C@@H]1C[C@H]2COc3nc4c(cnn4cc3OC3COC3)-c3cc(cc(OC)c3)NCCN2C1=O [Example 138, (12R,14S)-4-methoxy-12-(2-methoxyethoxy)-18-(oxetan-3-yloxy)-16-oxa-7,10,20,21,24-pentaazapentacyclo[15.5.2. 1^2,6.0^10,^14.0^20,^23]pentacosa-1(23),2,4,6(25),17(24),18,21-heptaen-11-one] | > 8.00
11 | CCOc1cc2cc(c1)-c1cnn3cc(OC)c(nc13)OC[C@@H]1C[C@@H](OCCOC)C(=O)N1CCN2 [Example 140, (12R,14S)-4-ethoxy-18-methoxy-12-(2-methoxyethoxy)-16-oxa-7,10,20,21,24-pentaazapentacyclo[15.5.2.1^2,6.0^10,^14.0^20,^23]pentacosa-1(23),2,4,6(25),17(24),18,21-heptaen-11-one] | > 8.00
12 | COCCO[C@@H]1C[C@H]2COc3nc4c(cnn4cc3OC)-c3cc(C#N)cc(c3)NCCN2C1=O [Example 145, (12R,14S)-18-methoxy-12-(2-methoxyethoxy)-11-oxo-16-oxa-7,10,20,21,24-pentaazapentacyclo[15.5.2.1^2,6.0^10,^14.0^20,^23]pentacosa-1(23),2,4,6(25),17(24),18,21-heptaene-4-carbonitrile] | > 8.00
13 | COc1cc2cc(c1)-c1cnn3cc(OC)c(nc13)OC[C@@H]1C[C@@H](OC(C)C)C(=O)N1CCN2 [Example 147, (12R,14S)-4,18-dimethoxy-12-(propan-2-yloxy)-16-oxa-7,10,20,21,24-pentaazapentacyclo[15.5.2. 1^2,6.0^10,^14.0^20,^23]pentacosa-1(23),2,4,6(25),17(24),18, 21-heptaen-11-one] | > 8.00

Other lines, results leading:

Row | pIC50 | SMILES
14 | > 8.00 | COc1cn2ncc3c2nc1OC[C@@H]1C[C@@H](OC)C(=O)N1CCNc1cc(F)cc-3c1 [Example 1, (12R,14S)-4-fluoro-12,18-dimethoxy-16-oxa-7,10,20,21,24-pentaazapentacyclo[15.5.2.1^2,6.0^1°,^14.0^2°,^23]pentacosa-1(23),2(25),3,5,17(24),18,21-heptaen-11-one]
15 | > 8.00 | COCCO[C@@H]1C[C@H]2COc3nc4c(cnn4cc3OCCCN(C)C)-c3cc(cc(OC)c3)NCCN2C1=O [Example 127, (12R,14S)-18-[3-(dimethylamino)propoxy]-4-methoxy-12-(2-methoxyethoxy)-16-oxa-7,10,20,21,24-pentaazapentacyclo[15.5.2. 1^2,6.0^10,^14.0^20,^23]pentacosa-1(23),2,4,6(25),17(24),18,21-heptaen-11-one]
16 | > 8.00 | COCCO[C@@H]1C[C@H]2COc3nc4c(cnn4cc3OC)-c3cc(O)cc(c3)NCCN2C1=O [Example 128, (12R,14S)-4-hydroxy-18-methoxy-12-(2-methoxyethoxy)-16-oxa-7,10,20,21,24-pentaazapentacyclo[15.5.2. 1^2,6.0^10,^14.0^20,^23]pentacosa-1(23),2,4,6(25),17(24),18,21-heptaen-11-one]
17 | > 8.00 | COCCO[C@@H]1C[C@H]2COc3nc4c(cnn4cc3OC3CC4(COC4)C3)-c3cc(cc(OC)c3)NCCN2C1=O [Example 136, (12R,14S)-4-methoxy-12-(2-methoxyethoxy)-18-{2-oxaspiro[3.3]heptan-6-yloxy}-16-oxa-7,10,20,21,24-pentaazapentacyclo[15.5.2. 1^2,6.0^10,^14.0^20,^23]pentacosa-1(23),2,4,6(25),17(24),18,21-heptaen-11-one]
18 | > 8.00 | COCCOc1cn2ncc3c2nc1OC[C@@H]1C[C@@H](OCCOC)C(=O)N1CCNc1cc(OC)cc-3c1 [Example 137, (12R,14S)-4-methoxy-12,18-bis(2-methoxyethoxy)-16-oxa-7,10,20,21,24-pentaazapentacyclo[15.5.2. 1^2,6.0^10,^14.0^20,^23]pentacosa-1(23),2,4,6(25),17(24),18,21-heptaen-11-one]
19 | > 8.00 | COCCO[C@@H]1C[C@H]2COc3nc4c(cnn4cc3OCCO)-c3cc(cc(OC)c3)NCCN2C1=O [Example 139, (12R,14S)-18-(2-hydroxyethoxy)-4-methoxy-12-(2-methoxyethoxy)-16-oxa-7,10,20,21,24-pentaazapentacyclo[15.5.2.1^2,6.0^1°,^14.0^2°,^23]pentacosa-1(23),2,4,6(25),17(24),18,21-heptaen-11-one]
20 | > 8.00 | [2H]C([2H])([2H])Oc1cc2cc(c1)-c1cnn3cc(OC)c(nc13)OC[C@@H]1C[C@@H](OCCOC)C(=O)N1CCN2 [Example 141, (12R,14S)-4-(^2H3)methoxy-18-methoxy-12-(2-methoxyethoxy)-16-oxa-7,10,20,21,24-pentaazapentacyclo[15.5.2.1^2,6.0^10,^14.0^20,^23]pentacosa-1(23),2,4,6(25),17(24),18,21-heptaen-11-one]
21 | 7.00 to 8.00 | COc1cc2cc(c1)-c1cnn3ccc(nc13)OC[C@@H]1C[C@@H](OC)C(=O)N1C(C)CN2 (stereo partly drawn) [Example 142, (12R,14S)-4,12-dimethoxy-9-methyl-16-oxa-7,10,20,21,24-pentaazapentacyclo[15.5.2.1^2,6.0^1°,^14.0^2°,^23]pentacosa-1(23),2(25),3,5,17(24),18,21-heptaen-11-one]
22 | > 8.00 | COc1cc2cc(c1)-c1cnn3cc(OC)c(nc13)OC[C@@H]1C[C@@H](O)C(=O)N1CCN2 [Example 143, (12R,14S)-12-hydroxy-4,18-dimethoxy-16-oxa-7,10,20,21,24-pentaazapentacyclo[15.5.2. 1^2,6.0^10,^14.0^20,^23]pentacosa-1(23),2(25),3,5,17(24),18,21-heptaen-11-one]
23 | > 8.00 | COCCO[C@@H]1C[C@H]2COc3nc4c(cnn4cc3OCC3COC3)-c3cc(cc(OC)c3)NCCN2C1=O [Example 144]
24 | > 8.00 | C#Cc1cc2cc(c1)-c1cnn3cc(OC)c(nc13)OC[C@@H]1C[C@@H](OCCOC)C(=O)N1CCN2 [Example 146, (12R,14S)-4-ethynyl-18-methoxy-12-(2-methoxyethoxy)-16-oxa-7,10,20,21,24-pentaazapentacyclo[15.5.2.1^2,6.0^1°,^14.0^2°,^23]pentacosa-1(23),2,4,6(25),17(24),18,21-heptaen-11-one]
